Results on two compounds are retold here after PMC3265415, “Fatty acyl-CoA reductases of birds” (BMC Biochemistry, 2011).

Common to all, as to experiment: radio-TLC assay of yeast membrane fraction (alcohols + aldehydes)
Holding throughout (format): biochemical

The target in experiment [1] is T1, AdFAR1 (Anser anser, UniProt G9IBF1).
T1 construct: gene FAR1; full-length cDNA from uropygial gland in pYES-DEST52 (primer keeps stop codon); S. cerevisiae BY4741 dga1 lro1 membranes
T1 sequence (G9IBF1 1-515): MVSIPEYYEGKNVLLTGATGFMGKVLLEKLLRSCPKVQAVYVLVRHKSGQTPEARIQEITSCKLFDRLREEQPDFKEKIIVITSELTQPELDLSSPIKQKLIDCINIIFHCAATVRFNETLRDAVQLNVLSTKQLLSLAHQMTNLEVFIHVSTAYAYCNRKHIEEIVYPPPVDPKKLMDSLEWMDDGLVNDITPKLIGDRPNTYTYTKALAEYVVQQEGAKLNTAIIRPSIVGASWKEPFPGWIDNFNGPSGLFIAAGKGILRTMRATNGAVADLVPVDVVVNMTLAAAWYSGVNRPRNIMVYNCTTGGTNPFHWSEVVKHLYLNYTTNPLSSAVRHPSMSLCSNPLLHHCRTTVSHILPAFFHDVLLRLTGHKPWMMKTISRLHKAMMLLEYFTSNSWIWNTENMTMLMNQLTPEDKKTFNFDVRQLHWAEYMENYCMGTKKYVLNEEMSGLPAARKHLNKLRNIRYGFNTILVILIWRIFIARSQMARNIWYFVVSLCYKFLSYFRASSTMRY
The conditions noted are these: pH 6.5, 37 C.

Experiment [2] has as its target T2, TaFAR1 (Tyto alba, UniProt G9IBF2).
T2 construct: gene FAR1; full-length cDNA from uropygial gland in pYES-DEST52 (primer keeps stop codon); expressed in Saccharomyces cerevisiae BY4741 dga1 lro1; total membrane fraction
T2 sequence (G9IBF2 1-515): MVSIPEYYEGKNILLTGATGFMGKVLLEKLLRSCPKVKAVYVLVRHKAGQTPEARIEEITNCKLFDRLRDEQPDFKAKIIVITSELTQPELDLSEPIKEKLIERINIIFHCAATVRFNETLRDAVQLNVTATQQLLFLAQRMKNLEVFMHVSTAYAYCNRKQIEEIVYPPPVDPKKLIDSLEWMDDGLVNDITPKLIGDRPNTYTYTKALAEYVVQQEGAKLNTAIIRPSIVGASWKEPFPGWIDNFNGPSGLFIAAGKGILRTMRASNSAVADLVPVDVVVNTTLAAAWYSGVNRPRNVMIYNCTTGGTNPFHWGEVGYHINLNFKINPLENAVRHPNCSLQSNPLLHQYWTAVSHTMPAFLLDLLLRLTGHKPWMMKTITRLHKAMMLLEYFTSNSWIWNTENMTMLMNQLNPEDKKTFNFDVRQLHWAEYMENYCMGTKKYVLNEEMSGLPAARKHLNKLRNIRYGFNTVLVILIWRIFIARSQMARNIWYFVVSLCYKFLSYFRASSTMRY
The conditions noted are these: labelled 16:0-CoA as co-substrate, NADPH varied; pH 6.5, 37 C.

For experiment [3], the target named is T3, GgFAR2 (Gallus gallus, UniProt A0A3Q2TWV7, V159M/K457R).
T3 construct: gene FAR2; uropygial gland cDNA in pYES-DEST52, S. cerevisiae BY4741 dga1 lro1 membranes
T3 sequence (A0A3Q2TWV7 1-515 V159M/K457R): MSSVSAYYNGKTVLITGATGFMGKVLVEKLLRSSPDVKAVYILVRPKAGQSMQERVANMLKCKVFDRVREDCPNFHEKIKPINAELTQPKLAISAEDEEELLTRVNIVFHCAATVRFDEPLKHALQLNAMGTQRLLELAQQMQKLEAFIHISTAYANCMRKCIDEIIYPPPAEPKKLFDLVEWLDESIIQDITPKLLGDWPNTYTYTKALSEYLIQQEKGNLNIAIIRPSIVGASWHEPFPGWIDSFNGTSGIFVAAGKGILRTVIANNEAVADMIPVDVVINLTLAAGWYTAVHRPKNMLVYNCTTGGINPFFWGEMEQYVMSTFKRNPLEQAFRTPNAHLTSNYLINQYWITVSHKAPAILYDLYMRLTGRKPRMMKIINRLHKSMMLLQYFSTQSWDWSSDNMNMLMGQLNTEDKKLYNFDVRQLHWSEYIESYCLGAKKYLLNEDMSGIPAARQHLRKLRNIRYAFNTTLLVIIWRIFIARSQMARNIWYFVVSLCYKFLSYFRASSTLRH
The conditions noted are these: labelled acyl-CoA as co-substrate; pH 5.5, 37 C.

The target of experiment [4] is T4, GgFAR1 (Gallus gallus, UniProt Q5ZM72).
T4 construct: gene FAR1; uropygial gland cDNA in pYES-DEST52, S. cerevisiae BY4741 dga1 lro1 membranes
T4 sequence (Q5ZM72 1-515): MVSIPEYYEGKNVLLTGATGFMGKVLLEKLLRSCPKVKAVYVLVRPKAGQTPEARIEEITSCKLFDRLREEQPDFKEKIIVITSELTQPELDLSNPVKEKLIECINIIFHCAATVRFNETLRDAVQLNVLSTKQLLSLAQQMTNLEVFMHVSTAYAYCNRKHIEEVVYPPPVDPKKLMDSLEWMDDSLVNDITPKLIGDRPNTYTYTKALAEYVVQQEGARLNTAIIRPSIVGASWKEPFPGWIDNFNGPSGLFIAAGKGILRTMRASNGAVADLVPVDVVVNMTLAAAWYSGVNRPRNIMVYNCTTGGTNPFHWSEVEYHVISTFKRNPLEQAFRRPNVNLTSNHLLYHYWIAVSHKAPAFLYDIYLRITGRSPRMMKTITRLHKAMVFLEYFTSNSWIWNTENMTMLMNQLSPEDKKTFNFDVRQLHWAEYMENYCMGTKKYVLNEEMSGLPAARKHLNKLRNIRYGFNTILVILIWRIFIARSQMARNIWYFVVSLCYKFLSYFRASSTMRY
The following applies: labelled acyl-CoA as co-substrate; pH 6.5, 37 C.

For experiment [5], the target named is T5, TaFAR2 (Tyto alba, UniProt G9IBF3).
T5 construct: gene FAR2; full-length cDNA from uropygial gland in pYES-DEST52 (primer keeps stop codon); expressed in Saccharomyces cerevisiae BY4741 dga1 lro1; total membrane fraction
T5 sequence (G9IBF3 1-515): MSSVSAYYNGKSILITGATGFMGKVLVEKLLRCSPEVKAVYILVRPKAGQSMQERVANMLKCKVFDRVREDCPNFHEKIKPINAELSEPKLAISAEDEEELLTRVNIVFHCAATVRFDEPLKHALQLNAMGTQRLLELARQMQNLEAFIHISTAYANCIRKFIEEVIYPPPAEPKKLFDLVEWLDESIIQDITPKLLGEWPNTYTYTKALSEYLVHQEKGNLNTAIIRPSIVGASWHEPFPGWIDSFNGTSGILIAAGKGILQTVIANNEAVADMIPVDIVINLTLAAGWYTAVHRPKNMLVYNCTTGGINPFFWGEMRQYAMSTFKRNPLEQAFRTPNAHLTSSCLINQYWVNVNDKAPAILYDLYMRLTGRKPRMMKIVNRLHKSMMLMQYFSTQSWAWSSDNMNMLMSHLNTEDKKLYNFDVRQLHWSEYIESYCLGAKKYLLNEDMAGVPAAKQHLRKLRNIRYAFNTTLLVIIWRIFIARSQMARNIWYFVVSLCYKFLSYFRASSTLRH
The following applies: labelled 18:0-CoA as co-substrate; pH 5.5, 37 C.

For the compound `CCCCCCCCCCCCCCCC(=O)SCCNC(=O)CCNC(=O)[C@H](O)C(C)(C)COP(=O)(O)OP(=O)(O)OC[C@H]1O[C@@H](n2cnc3c(N)ncnc32)[C@H](O)[C@@H]1OP(=O)(O)O` [16:0-CoA], the “radio-TLC assay of yeast membrane fraction (alcohols + aldehydes)” value in experiment [1] (20 uM acyl-CoA, 5 mM NADPH, 1 mM MgCl2, 16 uM BSA, labelled compound) is “only AdFAR1 of goose was almost equally active with all substrates”.

With `NC(=O)C1=CN([C@@H]2O[C@H](COP(=O)(O)OP(=O)(O)OC[C@H]3O[C@@H](n4cnc5c(N)ncnc54)[C@H](OP(=O)(O)O)[C@@H]3O)[C@@H](O)[C@H]2O)C=CC1` [NADPH], the “radio-TLC assay of yeast membrane fraction (alcohols + aldehydes)” value in experiment [2], in experiment [3], in experiment [4], in experiment [1] (labelled acyl-CoA as co-substrate) and in experiment [5] was “All FAR enzymes required NADPH as electron donor” throughout.
